Several values for one entry are separate records, joined by “and”; a condition that tells them apart may be missing. Identical values can stand only once.
Legend:
[1] = Brain tissue levels of AIT-082 (HPLC); type: in vivo, C57BL/6 mice; conditions: for Level of AIT-082 in brain tissue: 30 mg/kg i.p., 30 minutes after administration, 30 mg/kg
acetylcholine receptors = type: binding, mouse
NT-3 mRNA = experiment: Northern blot of neurotrophin mRNA from astrocytes: NT-3; type: cell-based, NIH Swiss mice; design: key: The conditions which produced a detectable amount of each of the neurotrophin mRNAs are indicated by a “+”; a “++” indicating that at least twice the detectable amount was present; Those blots which were negative are indicated by a “−”; conditions: 24 hours
Experimental: Induction of neurotrophin mRNA was determined by northern blot analysis of astrocytes cultured with AIT-082, NGF, or both. The cells were harvested and RNA extracted at 24 hours after treatment.
More particularly, astrocytes from the cerebral cortex of NIH Swiss mice (Harlan) were isolated. Briefly, newborn pups (0-24 hours) were decapitated. Their brains were removed under aseptic conditions and were placed in modified Dulbecco's medium (DMEM) containing 20% heat-inactivated horse serum (Hyclone) (“complete medium”). The neopallium was then dissected from each cerebral hemisphere and minced into 1 mm cubes.
The astrocytes were then isolated by mechanical dissociation. The cubes were vortexed at maximum speed for one minute. The cell suspension was then passed first through 75 mm Nitex then through 10 mm Nitex. The resulting cell suspension was diluted in complete medium to a final concentration of one brain per 10 ml of complete medium. Ten milliliters of the diluted cell suspension was added to each 100 mm Falcon tissue culture plate (Fisher). After 3 days the medium was replaced with 10 ml fresh complete medium and subsequently was replaced twice weekly with DMEM containing 10% heat inactivated horse serum (“growth medium”). After two weeks in culture the astrocytes formed a confluent monolayer.
For RNA extraction, astrocytes were trypsinized. The astrocytes were then replated onto 100 mm PORN coated plates at a cell density of 10^6 cells per plate (10 ml growth medium). […]
The blots were probed with ^32P-labeled cDNA (NGF, NT-3 and BDNF probes) or oligonucleotide probe (FGF-2) by hybridization in Piperazine-N,N′-bis-(2-ethanesulfonic acid) (PIPES) buffer (50 mM PIPES, pH 6.8; 50 mM NaH2PO4; 0.1 M NaCl; 5% SDS and 1 mM EDTA) overnight at 50° C. […] Various concentrations ([…] of total RNA), as determined by spectrophotometry, of each sample were blotted and probed so that quantification could be done after insuring a linear film response. Quantification was performed using MCID Image Analysis (St. Catherine's, Ontario, Canada). […]

Swiss Webster mice = experiment: T-maze discrimination learning and reversal; type: in vivo
Description: Subjects were also trained in the same T-maze used for the win-shift model discussed above. As in the win-shift method, subjects were shaped and then given a single reference run in which reward was available in both goal boxes. The subject was only allowed to consume the milk reward in the goal box selected. On the next run, the reward and thus the correct response was in the same goal box selected for the reference run and was not alternated. The subject was required to learn that there was no shift in the goal box for the correct response. The subjects were given 10 trials per day and continued until the subject had at least 8 out of 10 correct responses on two consecutive days. The number of days to reach this criteria of performance was recorded. After the subject reached criteria, the goal box for the correct response was reversed. The number of days taken to reach criteria on reversal was recorded.

[2] = tested on: cultured rat hippocampal neurons; experiment: NMDA-induced toxicity in cultured rat hippocampal neurons, astrocyte conditioned medium
Experimental: To determine whether or not AIT-082 afforded in vitro neuroprotection, the effect of AIT-082 on toxicity induced by N-methyl-D-aspartate (NMDA) in cultured rat hippocampal neurons was studied.
To determine whether AIT-082 protected against neuronal toxicity induced by NMDA, and whether astrocytes might be involved, cultured astrocytes were exposed to AIT-082 for 6 hr. The drug was then removed and cultures were kept in fresh medium for the following 20 hr. This conditioned medium was then added to primary cultures of rat hippocampal neurons on the seventh day in vitro, immediately after they had been exposed to a toxic pulse of NMDA.
It was next evaluated whether the addition of conditioned medium (CM) deriving from astrocyte cultures treated with 100 μM AIT-082 generated protection against damage induced by a toxic pulse with 100 μM NMDA in cultured neurons.
The effects of NMDA are shown in FIG. 66A on cortical cells and in FIG. 66B for hippocampal cells.

NT-3 = experiment: Summary of effects on growth factor mRNA and protein (Table R): NT-3; design: key: ± = mRNA; + = protein; nt = not tested
Description: (§1) The constellation of effects of AIT-082 on production of mRNA encoding growth factors and on production of growth factor proteins is shown in Table R. The results summarized in […] show both transcriptional and translational effects on growth factors that are in the categories of neurotrophins, pleiotrophins, members of the S100 family of EF hand calcium binding proteins, and members of the TGFβ superfamily. As indicated, effects have been shown at both the mRNA (transcriptional) and protein (translational) levels.

bFGF = experiment: Summary of effects on growth factor mRNA and protein (Table R): bFGF; design: key: ± = mRNA; + = protein; nt = not tested
Description: as §1

## O=C(CCn1cnc2c(=O)[nH]cnc21)Nc1ccc(C(=O)O)cc1 [AIT-082, N-4-carboxyphenyl-3-(6-oxohydropurin-9-yl)propanamide]
[1]; 30 minutes after oral administration
  level detected in brain: ≤ 3.3 ng/mg brain tissue
[1]; Cortex
  Level of AIT-082 in brain tissue: 2.8 ng/mg brain tissue and 3.4 ng/mg brain tissue
[1]; Remainder of brain
  Level of AIT-082 in brain tissue: 2.3 ng/mg brain tissue and 3.3 ng/mg brain tissue
[1]; brain tissue after 30 minutes
  passage of the blood-brain barrier: crosses the blood-brain barrier without degradation
Acetylcholine receptors
  interference with the binding of QNB: no effect
NT-3 mRNA; AIT-082 100 mM
  NT-3 mRNA: ++
NT-3 mRNA; AIT-082 + NGF (40 ng/ml)
  NT-3 mRNA: +
Swiss Webster mice; AIT-082 0.5 mg/kg
  T-maze Learning, Learning: 3.0 days to reach criteria
  T-maze Learning, Reversal: 3.78 days to reach criteria
Swiss Webster mice; AIT-082 30.0 mg/kg
  T-maze Learning, Learning: 3.3 days to reach criteria
  T-maze Learning, Reversal: 3.5 days to reach criteria
[2]; combination of 100 μM AIT-082 and CM, hippocampal cells, 100 μM NMDA
  reduction of cell damage: 70-80%
[2]; conditioned medium from astrocytes treated with AIT-082 (50-100 μM) for 6 hr
  reduction of the number of dead neurons and the production of LDH caused by NMDA: 50%
NT-3; Aged Brain
  NT-3, effect on mRNA/protein production: +
NT-3; Cultured Cells
  NT-3, effect on mRNA/protein production: ±
NT-3; Lesioned Spinal Cord
  NT-3, effect on mRNA/protein production: ±
NT-3; Normal Brain
  NT-3, effect on mRNA/protein production: +
bFGF; Aged Brain
  bFGF, effect on mRNA/protein production: ±
bFGF; Lesioned Brain
  bFGF, effect on mRNA/protein production: ±

Reference: patent US6338963B1, “Use of carbon monoxide dependent guanylyl cyclase modifiers to stimulate neuritogenesis” (NeoTherapeutics, Inc., priority 1994, dated 2002)
